According to publication PMC4879574, “Identification of Leishmania donovani Topoisomerase 1 inhibitors via intuitive scaffold hopping and bioisosteric modification of known Top 1 inhibitors” (Scientific Reports, 2016):
“And” between values parts separate entries of the source, which are not always exact repeats. Identical values can stand only once. Like-named read-outs stand apart in the source and are kept apart here.

Target: Leishmania donovani Topoisomerase 1 (LdTop1) (Leishmania donovani, UniProt A0A3Q8IHS4+Q8WQM6)
Experiment: Plasmid DNA relaxation assay, LdTop1 (simultaneous incubation)
Format: biochemical
Method: To investigate the inhibitory effect of our library compounds on the DNA relaxation activity of the recombinant Human and Leishmania topoisomerase 1 (Table 2), assays were performed involving supercoiled plasmid DNA, the enzymes (HTop1 and LdTop1) and our molecules. The enzymes were purified by the standard literature procedure.
All the experiments were conducted thrice and representative data from once set of them are expressed as mean ± SD.
The type I DNA topoisomerase are assayed by decreased mobility of the relaxed isomers of supercoiled pBS (SK^+) [pBlue-script (SK^+)] DNA in agarose gel. The relaxation assay was carried out as described previously with LdTop1B and HTop I, diluted in the relaxation buffer (25 mM Tris–HCl, pH 7.5, 5% glycerol, 0.5 mM DTT, 10 mM MgCl2, 50 mM KCl, […] and […] BSA) and supercoiled plasmid pBS (SK^+) DNA (85–95% were negatively supercoiled, with remainder being nicked circles)[9][28][29]. The reconstituted enzyme LdTop1B was assayed at 50 mM KCl concentration as described before. For all kinetic studies, the reaction mixtures containing the buffer and DNA were heated to 37 °C before addition of the enzymes. The reactions were rapidly quenched using stop solution and kept on ice. The gels were stained with ethidium bromide (EtBr) ([…]) and the amount of supercoiled monomer DNA band fluorescence were quantified by integration using Gel Doc 2000 under UV illumination (Bio-Rad Quantity One Software), as described previously.
Cells harvested from 1 litre of culture were separately lysed by lysozyme/sonication, and the proteins were purified through Ni-NTA (Ni^2+-nitriloacetate-agarose column (Qiagen, Hilden, Germany) followed by a phospho-cellulose column (P11 cellulose; Whatman, Maidstone Kent, UK) as described previously. Finally, the purified proteins LdTOP1L and LdTOP1S were stored at −70 °C. The concentrations of each protein were quantified by using Bradford Reagent (PIERCE, Thermo Fisher Scientific Inc., Rockford, USA). Purified LdTOP1L was mixed with purified LdTOP1S at a molar ratio of 1:1 to a total protein concentration of 0.5 mg/ml in reconstitution buffer [50 mM potassium phosphate, pH 7.5, 0.5 mM DTT, 1 mM EDTA, 0.1 mM PMSF and 10% (v/v) glycerol]. The mixture was dialyzed overnight at 4 °C and dialyzed fractions were used for plasmid relaxation activity.

Chain of Leishmania donovani Topoisomerase 1 (LdTop1) (Q8WQM6 entry or part of it): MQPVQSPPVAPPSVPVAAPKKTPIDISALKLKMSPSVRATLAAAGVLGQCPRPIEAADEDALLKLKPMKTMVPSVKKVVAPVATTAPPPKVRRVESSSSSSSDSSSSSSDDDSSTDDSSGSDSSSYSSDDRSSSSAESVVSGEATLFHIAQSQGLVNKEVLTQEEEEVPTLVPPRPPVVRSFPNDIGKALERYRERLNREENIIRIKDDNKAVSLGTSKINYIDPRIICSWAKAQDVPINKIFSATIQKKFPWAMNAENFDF
Chain of Leishmania donovani Topoisomerase 1 (LdTop1) (A0A3Q8IHS4 entry or part of it): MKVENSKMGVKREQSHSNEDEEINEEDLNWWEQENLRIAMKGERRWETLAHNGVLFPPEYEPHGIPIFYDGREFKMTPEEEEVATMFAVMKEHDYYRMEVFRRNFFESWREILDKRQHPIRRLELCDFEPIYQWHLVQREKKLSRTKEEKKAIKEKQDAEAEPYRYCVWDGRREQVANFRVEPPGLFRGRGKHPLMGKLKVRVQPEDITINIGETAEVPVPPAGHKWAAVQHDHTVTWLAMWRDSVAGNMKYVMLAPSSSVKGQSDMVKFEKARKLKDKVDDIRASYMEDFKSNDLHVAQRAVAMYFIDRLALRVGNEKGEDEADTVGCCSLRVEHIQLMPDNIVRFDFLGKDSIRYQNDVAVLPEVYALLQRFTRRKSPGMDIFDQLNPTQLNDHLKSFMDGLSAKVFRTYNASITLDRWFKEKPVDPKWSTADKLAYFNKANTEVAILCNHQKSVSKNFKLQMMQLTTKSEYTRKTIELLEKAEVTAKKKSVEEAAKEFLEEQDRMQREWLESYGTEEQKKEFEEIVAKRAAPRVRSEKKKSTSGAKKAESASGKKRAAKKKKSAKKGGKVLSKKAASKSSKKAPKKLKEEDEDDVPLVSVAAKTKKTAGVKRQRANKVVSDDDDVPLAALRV

- inhibition at 12.5 µM (LdTop1 relaxation, 12.5 uM, read-out: % inhibition, mean data): 97.2%
- inhibition at 25 µM (LdTop1 relaxation, 25 uM, read-out: % inhibition, mean data): 99.9%
- % inhibition (CPT 100%), data 2 (LdTop1 relaxation, 50 uM): 100.001%
- inhibition at 50 µM (LdTop1 relaxation, 50 uM, read-out: % inhibition, mean data): 100%
- % inhibition (CPT 100%), data 2 (LdTop1 relaxation, 100 uM): 100.003%
- inhibition at 100 µM (LdTop1 relaxation, 100 uM, read-out: % inhibition, mean data): 100%
- EC50 (incubated simultaneously with LdTop1 and supercoiled DNA, read-out: EC50, simultaneous assay): 3.77 ± 0.27 µM
- LdTop1 inhibitory activity (plasmid DNA relaxation): considerable activity
- EC50 (plasmid DNA relaxation, averages of three experiments, read-out: LDTop1 inhibition (EC50)): 4 µM and 3.51 µM
- inhibition at 12.5 µM (read-out: % inhibition (CPT 100%), data 1, LdTop1 relaxation, 12.5 uM): 97.3%
- inhibition at 25 µM (read-out: % inhibition (CPT 100%), data 1, LdTop1 relaxation, 25 uM): 99.9%
- inhibition at 50 µM (read-out: % inhibition (CPT 100%), data 1, LdTop1 relaxation, 50 uM): 100%
- inhibition at 100 µM (read-out: % inhibition (CPT 100%), data 1, LdTop1 relaxation, 100 uM): 100%
- inhibition at 0.62 µM (read-out: % inhibition (CPT 100%), data 1, simultaneous, 0.62 uM): 7.36%
- inhibition at 1.25 µM (read-out: % inhibition (CPT 100%), data 1, simultaneous, 1.25 uM): 23.5%
- inhibition at 2.5 µM (read-out: % inhibition (CPT 100%), data 1, simultaneous, 2.5 uM): 42.8%
- inhibition at 5 µM (read-out: % inhibition (CPT 100%), data 1, simultaneous, 5 uM): 60.1%
- inhibition at 10 µM (read-out: % inhibition (CPT 100%), data 1, simultaneous, 10 uM): 88.3%
- inhibition at 20 µM (read-out: % inhibition (CPT 100%), data 1, simultaneous, 20 uM): 91.6%
- inhibition at 12.5 µM (read-out: % inhibition (CPT 100%), data 2, LdTop1 relaxation, 12.5 uM): 97.1%
- inhibition at 25 µM (read-out: % inhibition (CPT 100%), data 2, LdTop1 relaxation, 25 uM): 99.9%
- inhibition at 50 µM (read-out: % inhibition (CPT 100%), data 2, LdTop1 relaxation, 50 uM): 100%
- inhibition at 100 µM (read-out: % inhibition (CPT 100%), data 2, LdTop1 relaxation, 100 uM): 100%
- inhibition at 0.62 µM (read-out: % inhibition (CPT 100%), data 2, simultaneous, 0.62 uM): 8.88%
- inhibition at 1.25 µM (read-out: % inhibition (CPT 100%), data 2, simultaneous, 1.25 uM): 22.5%
- inhibition at 2.5 µM (read-out: % inhibition (CPT 100%), data 2, simultaneous, 2.5 uM): 43.7%
- inhibition at 5 µM (read-out: % inhibition (CPT 100%), data 2, simultaneous, 5 uM): 60.9%
- inhibition at 10 µM (read-out: % inhibition (CPT 100%), data 2, simultaneous, 10 uM): 86.5%
- inhibition at 20 µM (read-out: % inhibition (CPT 100%), data 2, simultaneous, 20 uM): 92.9%
- inhibition at 0.62 µM (simultaneous, 0.62 uM, read-out: % inhibition, mean data): 8.12%
- inhibition at 1.25 µM (simultaneous, 1.25 uM, read-out: % inhibition, mean data): 23%
- inhibition at 2.5 µM (simultaneous, 2.5 uM, read-out: % inhibition, mean data): 43.3%
- inhibition at 5 µM (simultaneous, 5 uM, read-out: % inhibition, mean data): 60.5%
- inhibition at 10 µM (simultaneous, 10 uM, read-out: % inhibition, mean data): 87.4%
- % inhibition, mean data (simultaneous, 20 uM): 92.2648%
- inhibition at 20 µM (simultaneous, 20 uM, read-out: % inhibition, mean data): ~92%
- EC50 (supplement sheet, simultaneous, concentrations in uM, read-out: EC50 of 4-Sim): 3.77 µM
Compound: Cc1cc2c(c(=O)[nH]1)C(=O)O/C2=C\c1ccc(O)c(O)c1 [Compound 4]
